Data published in patent publication US5840696A (priority 1997, dated 1998).

Columns and labels:
[1] = tested on: constitutive nitric oxide synthase (cNOS); assay: influence of L-NAME on urine flow rate responses in conscious rats
[2] = target: T1, central kappa-opioid receptors (Rattus norvegicus, UniProt P34975); details: 1 μg i.c.v. pretreatment, previous investigations; cited from earlier work
T1 construct: Anesthetized male Sprague-Dawley rats; from tissue; host or cells: central nervous system of conscious male Sprague-Dawley rats (in vivo, lateral cerebral ventricle injection)
T1 sequence (P34975 whole entry): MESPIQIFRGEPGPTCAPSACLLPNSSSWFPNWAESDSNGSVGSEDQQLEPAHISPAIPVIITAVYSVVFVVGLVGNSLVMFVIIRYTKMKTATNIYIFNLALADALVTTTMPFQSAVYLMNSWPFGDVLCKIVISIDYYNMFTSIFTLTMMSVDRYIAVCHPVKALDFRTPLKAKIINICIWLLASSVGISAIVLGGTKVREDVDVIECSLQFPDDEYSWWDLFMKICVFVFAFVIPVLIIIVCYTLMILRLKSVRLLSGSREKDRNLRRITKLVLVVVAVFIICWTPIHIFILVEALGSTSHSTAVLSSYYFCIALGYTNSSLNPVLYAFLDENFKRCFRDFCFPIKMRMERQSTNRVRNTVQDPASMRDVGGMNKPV

For `COC(=O)[C@@H](N)CCCNC(=N)N[N+](=O)[O-]` [L-NAME, L-nitro arginine methyl ester], the “baseline urine flow rate (V)” value ([1]; 30 mg/Kg i.v.) was “did not alter baseline urine flow rate”.

For `NS(=O)(=O)c1cc(C(=O)O)c(NCc2ccco2)cc1Cl` [furosemide], the “urine flow rate (V) response after L-NAME” value ([1]; L-NAME pretreatment) was “did not alter urine flow rate”.

In the case of `Oc1ccc2c3c1O[C@H]1c4[nH]c5c(c4C[C@@]4(O)[C@@H](C2)N(CC2CC2)CC[C@]314)C[C@@]1(O)[C@H]2Cc3ccc(O)c4c3[C@@]1(CCN2CC1CC1)[C@H]5O4` [nor-binaltorphimine], the “effect on renal responses produced by i.c.v. U50,488H (1 μg)” value [2] is listed as “completely and selectively prevented”.
